According to patent US20250221966A1, “RXFP1 AGONISTS” (BRISTOL-MYERS SQUIBB COMPANY, priority 2021, published 2025):
Where two headings read alike, the source gives them in different places.

Target: T1, human RXFP1 (Homo sapiens, UniProt Q9HBX9)
T1 construct: expressed in transfected cells
T1 sequence (Q9HBX9 1-757): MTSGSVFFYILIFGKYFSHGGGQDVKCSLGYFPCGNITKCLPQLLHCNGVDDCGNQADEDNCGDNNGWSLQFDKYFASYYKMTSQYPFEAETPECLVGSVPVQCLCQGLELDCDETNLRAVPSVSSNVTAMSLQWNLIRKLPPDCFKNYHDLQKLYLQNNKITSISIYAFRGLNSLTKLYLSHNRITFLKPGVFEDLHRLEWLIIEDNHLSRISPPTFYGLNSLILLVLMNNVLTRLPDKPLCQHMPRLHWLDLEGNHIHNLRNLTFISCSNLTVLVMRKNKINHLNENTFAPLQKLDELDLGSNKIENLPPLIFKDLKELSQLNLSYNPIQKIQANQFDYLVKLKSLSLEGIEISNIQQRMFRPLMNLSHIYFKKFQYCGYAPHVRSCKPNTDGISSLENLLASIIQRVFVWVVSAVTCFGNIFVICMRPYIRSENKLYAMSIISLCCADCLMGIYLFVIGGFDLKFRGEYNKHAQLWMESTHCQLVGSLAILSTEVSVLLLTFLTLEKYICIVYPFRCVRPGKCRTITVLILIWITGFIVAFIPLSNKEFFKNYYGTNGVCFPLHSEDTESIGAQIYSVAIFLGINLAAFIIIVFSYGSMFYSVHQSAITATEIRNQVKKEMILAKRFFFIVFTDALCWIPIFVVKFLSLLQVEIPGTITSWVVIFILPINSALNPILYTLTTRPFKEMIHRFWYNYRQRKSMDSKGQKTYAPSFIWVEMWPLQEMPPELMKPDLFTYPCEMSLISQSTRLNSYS
Experiment: RXFP1 cAMP assay (hRXFP1 HEK293 cAMP assay, HTRF)
Type: cell-based
Method in brief: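 In a stable human RXFP1 HEK293 line, compounds acted for 30 min at RT in buffer with 0.5 mM IBMX. HTRF then quantified cellular cAMP.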

[1] = HEK293 cells stably expressing human RXFP1, 30 min at room temperature, read-out: cAMP hRXFP1 HEK293 Assay EC50

| Compound | EC50 [1] | EC50 (cAMP hRXFP1 HEK293 Assay EC50, HEK293 cells stably expressing human RXFP1, 30 min at room temperature) |
| --- | --- | --- |
| COc1ccc(C2=NOC(CC(=O)O)C2)cc1C(=O)N[C@@H]1C2CCC(/C2=C/C2CCC2)[C@@H]1C(=O)Nc1ccc(F)c(C(F)(F)F)c1 (some centres unmarked) [compound 394] | 49 nM |  |
| CCO/N=C1\C2CCC1[C@H](C(=O)Nc1ccc(F)c(C(F)(F)F)c1)[C@@H]2NC(=O)c1cc(F)c(F)cc1OC (some centres unmarked) [compound 133] | 1700 nM |  |
| COc1ccc(C2=NOC3CC(CO)CC23)cc1C(=O)N[C@H]1[C@@H](C(=O)N[C@H](C)C2(C)CC2)[C@H]2CC[C@@H]1/C2=C\c1csc(C(F)F)n1 (some centres unmarked) [compound 741] | 1.7 nM |  |
| COc1ccc(-c2cc(C(=O)O)ccc2F)cc1C(=O)N[C@@H]1C2CCC(/C2=C/C2CC2)[C@@H]1C(=O)Nc1cccc(-c2csnn2)c1 (some centres unmarked) [compound 271] | 664 nM |  |
| COc1ccc(-c2cc(C(NC(=O)CC3CCOCC3)C(=O)O)ccc2F)cc1C(=O)N[C@@H]1C2CCC(/C2=C/C(F)(F)F)[C@@H]1C(=O)Nc1ccc(F)c(C(F)(F)F)c1 (some centres unmarked) [compound 242] | 3 nM |  |
| COc1ccc(C2=NOC3CC(O)(C(F)(F)F)CC23)cc1C(=O)N[C@H]1[C@@H](C(=O)N[C@H](C)C2(C)CC2)[C@H]2CC[C@@H]1/C2=C\C1CC1 (some centres unmarked) [compound 859] | 1.8 nM |  |
| COc1ccc(-c2cncc(C(=O)O)c2)cc1C(=O)N[C@@H]1C2CCC(/C2=C/C(F)(F)F)[C@@H]1C(=O)Nc1ccc(F)c(C(F)(F)F)c1 (some centres unmarked) [compound 288] | 127 nM |  |
| CCOC(=O)c1c(-c2ccc(F)cc2)[nH]c2ccc(-c3ccc(OC)c(C(=O)N[C@@H]4C5CCC(/C5=C/C(F)(F)F)[C@@H]4C(=O)Nc4ccc(F)c(C(F)(F)F)c4)c3)cc12 (some centres unmarked) [compound 298] | 70 nM |  |
| COc1ccc(C2=NO[C@H]3C[C@H](CO)C[C@@H]23)cc1C(=O)N[C@H]1[C@@H](C(=O)Nc2ccc(F)c(C(F)(F)F)c2)[C@H]2CC[C@@H]1/C2=C\CC(O)C(F)(F)F (some centres unmarked) [compound 820] | 2.4 nM |  |
| COc1ccc(C2=NO[C@H]3C[C@H](CO)CN23)cc1C(=O)N[C@H]1[C@@H](C(=O)Nc2ccc(F)c(C(F)(F)F)c2)[C@H]2CC[C@@H]1/C2=C\C(C)C [compound 833] | 3.7 nM |  |
| COc1ccc(C2=NOC(C(C)O)C2)cc1C(=O)N[C@H]1[C@@H](C(=O)Nc2ccc(F)c(C(F)(F)F)c2)[C@H]2CC[C@@H]1/C2=C\C1CC1 (single isomer, unassigned) [compound 509] | 15.2 nM |  |
| COc1ccc(-c2cc([C@H](OC(=O)NC3CCC3)C(F)(F)F)ccc2F)cc1C(=O)N[C@@H]1C2CCC(/C2=C/CCC(F)(F)F)[C@@H]1C(=O)Nc1ccc(F)c(C(F)(F)F)c1 (some centres unmarked) [compound 923] | 4.7 nM |  |
| COc1ccc(-c2cc(C3=NOC4CC(CO)CC34)ccc2F)cc1C(=O)N[C@H]1[C@@H](C(=O)Nc2ccc(F)c(C(F)(F)F)c2)[C@H]2CC[C@@H]1/C2=C\C1CCCC1 (some centres unmarked) [compound 952] | 1.5 nM |  |
| COc1ccc(C2=NOC(C(=O)O)C2)cc1C(=O)N[C@@H]1C2CCC(/C2=C/C2CCC2)[C@@H]1C(=O)Nc1ccc(F)c(C(F)(F)F)c1 (some centres unmarked) [compound 388] | 152 nM |  |
| COc1ccc(C2=NOC3COCC23)c(F)c1C(=O)N[C@H]1[C@@H](C(=O)Nc2ccc(F)c(C(F)(F)F)c2)[C@H]2CC[C@@H]1/C2=C\C1CC1 (single isomer, unassigned) [compound 513] | 16.5 nM |  |
| COc1ccc(C2CCCN2C(=O)OC(C)(C)C)cc1C(=O)N[C@@H]1C2CCC(/C2=C/C2CC2)[C@@H]1C(=O)Nc1ccc(F)c(C(F)(F)F)c1 (single isomer, unassigned) [compound 715] | 1960 nM |  |
| COc1ccc(C2=NOC3CC(C(C)O)CC23)cc1C(=O)N[C@H]1[C@@H](C(=O)Nc2ccc(F)c(C(F)(F)F)c2)[C@H]2CC[C@@H]1/C2=C\C1CC1 (some centres unmarked) [compound 844] | 1.2 nM |  |
| CC(C)=C1C2CCC1[C@H](C(=O)Nc1ccc(F)c(C(F)(F)F)c1)[C@@H]2NC(=O)c1cc(-c2cc(C(=O)O)ccc2F)ccc1N(C)C (some centres unmarked) [Example 107] | 180 nM |  |

| Compound | EC50 [1] | EC50 (cAMP hRXFP1 HEK293 Assay EC50, HEK293 cells stably expressing human RXFP1, 30 min at room temperature) |
| --- | --- | --- |
| COc1ccc(-c2cnc3n2CCC3O)cc1C(=O)N[C@H]1[C@@H](C(=O)Nc2ccc(F)c(C(F)(F)F)c2)[C@H]2CC[C@@H]1/C2=C\C1CC1 (some centres unmarked) [compound 754] | 3.6 nM |  |
| COc1ccc(C2=NO[C@H]3C[C@H](CO)CN23)cc1C(=O)N[C@H]1[C@@H](C(=O)Nc2ccc(F)c(C(F)(F)F)c2)[C@H]2CC[C@@H]1/C2=C\C1CCCC1 [compound 816] | 1.6 nM |  |
| COc1ccc(-c2cc(C(OC(=O)NCC(F)(F)F)C(F)(F)F)ccc2F)cc1C(=O)N[C@@H]1C2CCC(/C2=C/C2CC2)[C@@H]1C(=O)Nc1ccc(F)c(C(F)(F)F)c1 (some centres unmarked) [compound 220] | 8 nM |  |
| CNC(=O)OC(C(=O)O)c1ccc(F)c(-c2ccc(OC)c(C(=O)N[C@@H]3C4CCC(/C4=C/C4CC4)[C@@H]3C(=O)Nc3ccc(F)c(C(F)(F)F)c3)c2)c1 (some centres unmarked) [Example 179] |  | 5 nM |
| COc1ccc(-c2nc(C(=O)O)co2)cc1C(=O)N[C@@H]1C2CCC(C2=C(C)C)[C@@H]1C(=O)Nc1ccc(F)c(C(F)(F)F)c1 (some centres unmarked) [Example 113] | 1800 nM |  |
| COc1c(F)cc(C2=NOC3CC(CO)CC23)cc1C(=O)N[C@H]1[C@@H](C(=O)Nc2ccc(F)c(C(F)(F)F)c2)[C@H]2CC[C@@H]1/C2=C\CCC(F)(F)F (some centres unmarked) [compound 792] | 1.4 nM |  |
| COc1ccc(C2=NOC3C(O)CC(O)C23)cc1C(=O)N[C@H]1[C@@H](C(=O)Nc2ccc(F)c(C(F)(F)F)c2)[C@H]2CC[C@@H]1/C2=C\C1CC1 (single isomer, unassigned) [compound 674] | 481 nM |  |
| COc1ccc(C2=NOC3CC(CO)CC23)cc1C(=O)N[C@H]1[C@@H](C(=O)Nc2ccc(F)c(C(F)(F)F)c2)[C@H]2CC[C@@H]1/C2=C\C1CCCC1 (some centres unmarked) [compound 445] | 0.5 nM |  |
| COc1ccc(C2=NOC(C(C)(O)C(F)(F)F)C2)cc1C(=O)N[C@H]1[C@@H](C(=O)Nc2ccc(F)c(C(F)(F)F)c2)[C@H]2CC[C@@H]1/C2=C\C1CC1 (single isomer, unassigned) [compound 517] | 18 nM |  |
| COc1ccc(C2=NOC(C(=O)OC(C)(C)C)C2)cc1C(=O)N[C@@H]1C2CCC(/C2=C/C2CC2)[C@@H]1C(=O)Nc1ccc(F)c(C(F)(F)F)c1 (some centres unmarked) [compound 386] | 71 nM |  |
| CN(C)c1ccc(C2=NOC3COCC23)cc1C(=O)N[C@H]1[C@@H](C(=O)Nc2ccc(F)c(C(F)(F)F)c2)[C@H]2CC[C@@H]1/C2=C\C(F)(F)F (single isomer, unassigned) [compound 518] | 18.4 nM |  |
| CCC(NC(=O)[C@@H]1[C@H](NC(=O)c2cc(C3=NOC4COCC34)ccc2OC)[C@@H]2CC[C@H]1/C2=C/C1CC1)c1ccccc1C (single isomer, unassigned) [compound 656] | 311 nM |  |
| COc1ccc(-c2cc(C(OC(=O)NC34CC(C3)C4)C(F)F)ccc2F)cc1C(=O)N[C@@H]1C2CCC(/C2=C/C2CC2)[C@@H]1C(=O)Nc1ccc(F)c(C(F)(F)F)c1 (some centres unmarked) [compound 232] | 1 nM |  |
| COc1ccc(C2=NOC(C3(O)CC3)C2)cc1C(=O)N[C@H]1[C@@H](C(=O)NCC(C)(C)C)[C@H]2CC[C@@H]1/C2=C\C1CC1 (some centres unmarked) [compound 618] | 155 nM |  |
| COc1ccc(C2=NOC3CC(C(C)(C)O)CC23)cc1C(=O)N[C@H]1[C@@H](C(=O)Nc2ccc(F)c(C(F)(F)F)c2)[C@H]2CC[C@@H]1/C2=C\C1CC1 (single isomer, unassigned) [compound 462] | 3 nM |  |
| COc1cc(F)c(F)cc1C(=O)N[C@@H]1C2CCC([C@@H]1C(=O)Nc1ccc(F)c(C(F)(F)F)c1)C21OCCO1 (some centres unmarked) [Example 147] | 1800 nM |  |
| CCC/C=C/C=C1\C2CCC1[C@H](C(=O)Nc1ccc(F)c(C(F)(F)F)c1)[C@@H]2NC(=O)c1cc(F)c(F)cc1OC (some centres unmarked) [compound 45] | 59 nM |  |
